Data set [1] concerns Staphylococcus aureus 209P. Kind of data set: MIC by tube dilution method in brain heart infusion broth. The data set is classed as cell-based. Conditions: Staphylococcus aureus, 209P. The procedure:
(§1) The minimum growth inhibitory concentrations (MIC) of the compounds (I) against various microorganisms were measured by a tube dilution method in a brain heart infusion broth (pH 7.5) as a medium.

The test system of data set [2] is Staphylococcus aureus MS9861. The data set is described as above. The data set is classed as cell-based. The following applies: MS9861, pH 7.5, read-out: Antimicrobial activity (MIC) Staphylococcus aureus MS9861. Here is the method: as §1
Data set [3] has as its system Klebsiella pneumoniae PCI602. Described as above. The data set is classed as cell-based. Conditions: Klebsiella pneumoniae. Here is the method:
as §1

Data set [4] deals with Bacillus subtilis NRRL B-558. The data set is described as above. The data set is classed as cell-based. Conditions: Bacillus subtilis. The procedure: as §1
The nature of data set [5]: Stability on standing at room temperature. The data set is classed as physicochemical. Conditions: left to stand at room temperature for one month. The text has this:
Stable even when left to stand at room temperature for one month.

For data set [6], the system named is Mycoplasma gallisepticum KP-13. Briefly: MIC by tube dilution method in brain heart infusion broth. The data set is classed as cell-based. The following applies: Mycoplasmoides gallisepticum, KP13, pH 7.5, read-out: Minimum growth inhibitory concentration. Here is the method: as §1
A further data set concerns Escherichia coli NIHJ. The data set is described as above. The data set is classed as cell-based. Conditions: Escherichia coli, pH 7.5, read-out: Minimum growth inhibitory concentration. The procedure:
as §1

Data set [7] relates to Corynebacterium bovis 1810. Described as above. The data set is classed as cell-based. The following applies: Corynebacterium bovis, 1810, pH 7.5, read-out: Minimum growth inhibitory concentration. The procedure:
as §1

The next data set relates to Sartina lutea PCI 1001. The data set is described as above. The data set is classed as cell-based. Conditions: pH 7.5, read-out: Minimum growth inhibitory concentration. Here is the method:
as §1

Data set [8] relates to Shigella dysenteriae JS 11910. The data set is described as above. The data set is classed as cell-based. The following applies: JS11910, pH 7.5, read-out: Minimum growth inhibitory concentration. Here is the method:
as §1

Data set [9] has as its system Staphylococcus aureus MS10225. Described as above. The data set is classed as cell-based. The following applies: Staphylococcus aureus, MS10225, pH 7.5, read-out: Minimum growth inhibitory concentration. The procedure:
as §1

Setting [10] is: pH 7.5, read-out: Antimicrobial activity (MIC) Staphylococcus aureus 209P.
The mark [11] stands for this setting: PCI602, pH 7.5, read-out: Antimicrobial activity (MIC) Klebsiella pneumonae PCI602.
[12] abbreviates: NRRLB558, pH 7.5, read-out: Antimicrobial activity (MIC) Bacillus subtilis NRRL B558.

The values below come from patent EP0052361A1, “Novel 16-membered macrolide compounds” (SANRAKU-OCEAN CO., LTD., priority 1980, dated 1982).

In brackets after ≈: the same amount, converted by molar mass. Where two headings read alike, the source gives them in different places.

For the molecule `CCC1OC(=O)CC(O)C(C)C(OC2OC(C)C(OC3CC(C)(O)C(OC(=O)Nc4ccccc4)C(C)O3)C(N(C)C)C2O)C(CC=O)CC(C)C(=O)/C=C/C(C)=C/C1C` (stereo not drawn), the MIC in [1] (setting [10]) is 0.8 µg/mL (≈ 0.947 µM); in [2] it was 3.1 µg/mL (≈ 3.67 µM); in data set [3] (setting [11]), 6.3 µg/mL (≈ 7.46 µM); in data set [4] (setting [12]), 0.8 µg/mL (≈ 0.947 µM).
In the case of `CCC1OC(=O)CC(O)C(C)C(OC2OC(C)C(OC3CC(C)(O)C(OC4CCCCO4)C(C)O3)C(N(C)C)C2O)C(CC=O)CC(C)C(=O)/C=C/C(C)=C/C1C` (stereo not drawn), the MIC in data set [1] (setting [10]) was found to be 1.6 µg/mL (≈ 1.98 µM); in data set [2], 3.1 µg/mL (≈ 3.83 µM); in data set [3] (setting [11]), 3.1 µg/mL (≈ 3.83 µM); in data set [4] (setting [12]), 0.4 µg/mL (≈ 0.494 µM).
Turning to `CCC1OC(=O)CC(O)C(C)C(OC2OC(C)C(OC3CC(C)(O)C(OC(=O)Cc4cccs4)C(C)O3)C(N(C)C)C2O)C(CC=O)CC(C)C(=O)C=CC(C)=CC1C` (stereo not drawn), the MIC amounted to 0.2 µg/mL (≈ 0.235 µM) in data set [1] (setting [10]), 1.6 µg/mL (≈ 1.88 µM) in [2], 3.1 µg/mL (≈ 3.65 µM) in [3] (setting [11]) and 0.4 µg/mL (≈ 0.471 µM) in data set [4] (setting [12]).
For `CCC1OC(=O)CC(O)C(C)C(OC2OC(C)C(OC3CC(C)(OC(C)=O)C(OC(=O)CSc4ccncc4)C(C)O3)C(N(C)C)C2O)C(CC=O)CC(C)C(=O)C=CC(C)=CC1C` (stereo not drawn) the same measures were below 0.2 µg/mL, 0.8 µg/mL (≈ 0.87 µM), 6.3 µg/mL (≈ 6.85 µM) and below 0.2 µg/mL.
Regarding `CCC1OC(=O)CC(O)C(C)C(OC2OC(C)C(OC3CC(C)(O)C(O)C(C)O3)C(N(C)C)C2O)C(CC=O)CC(C)C(=O)C=CC(C)=CC1C` (stereo not drawn) [Antibiotic YT-3927, antibiotic YT-3927], the Stability result in [5] is “Stable”. Besides, the MIC was 0.02 µg/mL (≈ 0.0276 µM) in [6]; 25 µg/mL (≈ 34.4 µM) with Escherichia coli NIHJ; 0.39 µg/mL (≈ 0.537 µM) in data set [7]; below 0.2 µg/mL with Sartina lutea PCI 1001; 0.4 µg/mL (≈ 0.551 µM) in data set [1] (setting [10]); 0.39 µg/mL (≈ 0.537 µM) in [1] (pH 7.5, read-out: Minimum growth inhibitory concentration). The MIC was determined as 3.1 µg/mL (≈ 4.27 µM) in data set [2]; 1.56 µg/mL (≈ 2.15 µM) in [8]; 0.78 µg/mL (≈ 1.07 µM) in data set [9]; 3.1 µg/mL (≈ 4.27 µM) in data set [3] (setting [11]); 3.12 µg/mL (≈ 4.3 µM) in data set [3] (PCI602, pH 7.5, read-out: Minimum growth inhibitory concentration); 0.4 µg/mL (≈ 0.551 µM) in data set [4] (setting [12]). Moreover, the MIC in data set [4] (NRRLB558, pH 7.5, read-out: Minimum growth inhibitory concentration) is 0.39 µg/mL (≈ 0.537 µM).
Take `CCC1OC(=O)CC(O)C(C)C(OC2OC(C)C(OC3CC(C)(OC(C)=O)C(OC(=O)CC(C)C)C(C)O3)C(N(C)C)C2O)C(CC=O)CC(C)C(=O)C=CC(C)=CC1C` (stereo not drawn) [R1=H; R2=COCH3; YR3=COCH2CH(CH3)2]: the MIC in data set [1] (setting [10]) is 0.8 µg/mL (≈ 0.939 µM); in [2], 1.6 µg/mL (≈ 1.88 µM); in data set [3] (setting [11]), 25 µg/mL (≈ 29.3 µM); in [4] (setting [12]) it was 0.8 µg/mL (≈ 0.939 µM).
`CCC1OC(=O)CC(O)C(C)C(OC2OC(C)C(OC3CC(C)(O)C(OC(=O)CC(C)C)C(C)O3)C(N(C)C)C2O)C(CC=O)CC(C)C(=O)C=CC(C)=CC1C` (stereo not drawn) [R1=H; R2=H; YR3=COCH2CH(CH3)2, 4"-isovaleryl YT-3927]: the MIC in data set [1] (setting [10]) is 0.4 µg/mL (≈ 0.494 µM); in [2], 1.6 µg/mL (≈ 1.98 µM); in data set [3] (setting [11]), 6.3 µg/mL (≈ 7.78 µM); in [4] (setting [12]) it was 0.4 µg/mL (≈ 0.494 µM).
`CCC1OC(=O)CC(O)C(C)C(OC2OC(C)C(OC3CC(C)(O)C(OC(=O)C(OC(C)=O)c4ccccc4)C(C)O3)C(N(C)C)C2O)C(CC=O)CC(C)C(=O)/C=C/C(C)=C/C1C` (stereo not drawn): the MIC in [1] (setting [10]) was 0.8 µg/mL (≈ 0.887 µM); in [2], 3.1 µg/mL (≈ 3.44 µM); in [3] (setting [11]), 25 µg/mL (≈ 27.7 µM); in data set [4] (setting [12]) it was 0.8 µg/mL (≈ 0.887 µM).
As for `CCC1OC(=O)CC(OC(C)=O)C(C)C(OC2OC(C)C(OC3CC(C)(OC(C)=O)C(OC(C)=O)C(C)O3)C(N(C)C)C2O)C(CC=O)CC(C)C(=O)C=CC(C)=CC1C` (stereo not drawn) [R1=COCH3; R2=COCH3; YR3=COCH3, 3,3",4"-triacetyl YT-3927], the MIC stood at 1.6 µg/mL (≈ 1.88 µM) in data set [1] (setting [10]), 3.1 µg/mL (≈ 3.64 µM) in data set [2], 100 µg/mL (≈ 117 µM) in data set [3] (setting [11]) and 0.4 µg/mL (≈ 0.469 µM) in data set [4] (setting [12]).
For `CCC1OC(=O)CC(O)C(C)C(OC2OC(C)C(OC3CC(C)(O)C(OC(=O)C4CCCCC4)C(C)O3)C(N(C)C)C2O)C(CC=O)CC(C)C(=O)/C=C/C(C)=C/C1C` (stereo not drawn) the same measures were 0.8 µg/mL (≈ 0.957 µM), 3.1 µg/mL (≈ 3.71 µM), 12.5 µg/mL (≈ 15 µM) and 0.2 µg/mL (≈ 0.239 µM).
For `CCC1OC(=O)CC(O)C(C)C(OC2OC(C)C(OC3CC(C)(O)C(OC(=O)C(O)c4ccccc4)C(C)O3)C(N(C)C)C2O)C(CC=O)CC(C)C(=O)C=CC(C)=CC1C` (stereo not drawn) the same measures were below 0.2 µg/mL, 1.6 µg/mL (≈ 1.86 µM), 3.1 µg/mL (≈ 3.6 µM) and 1.6 µg/mL (≈ 1.86 µM).
Take `CCC1OC(=O)CC(OC(C)=O)C(C)C(OC2OC(C)C(OC3CC(C)(O)C(OC(=O)CC(C)C)C(C)O3)C(N(C)C)C2O)C(CC=O)CC(C)C(=O)C=CC(C)=CC1C` (stereo not drawn) [R1=COCH3; R2=H; YR3=COCH2CH(CH3)2, 3-acetyl-4"-isovaleryl YT-3927]: the MIC in data set [1] (setting [10]) is 0.4 µg/mL (≈ 0.469 µM); in [2], 6.3 µg/mL (≈ 7.39 µM); in data set [3] (setting [11]), 25 µg/mL (≈ 29.3 µM); in [4] (setting [12]) it was 0.8 µg/mL (≈ 0.939 µM).
With `CCC1OC(=O)CC(O)C(C)C(OC2OC(C)C(OC3CC(C)(OC(C)=O)C(OC(=O)C4CCCCC4)C(C)O3)C(N(C)C)C2O)C(CC=O)CC(C)C(=O)/C=C/C(C)=C/C1C` (stereo not drawn), the MIC in data set [1] (setting [10]) is 1.6 µg/mL (≈ 1.82 µM); in data set [2], 6.3 µg/mL (≈ 7.17 µM); in data set [3] (setting [11]), above 100 µg/mL; in [4] (setting [12]), 0.4 µg/mL (≈ 0.456 µM).
The like results for `CCC1OC(=O)CC(O)C(C)C(OC2OC(C)C(OC3CC(C)(O)C(OC(=O)Cc4cccnc4)C(C)O3)C(N(C)C)C2O)C(CC=O)CC(C)C(=O)C=CC(C)=CC1C` (stereo not drawn) were, in that order, below 0.2 µg/mL, 0.8 µg/mL (≈ 0.947 µM), 1.6 µg/mL (≈ 1.89 µM) and below 0.2 µg/mL.
The like results for `CCC1OC(=O)CC(O)C(C)C(OC2OC(C)C(OC3CC(C)(O)C(OC(=O)CSc4ccncc4)C(C)O3)C(N(C)C)C2O)C(CC=O)CC(C)C(=O)C=CC(C)=CC1C` (stereo not drawn) were, in that order, below 0.2 µg/mL, 1.6 µg/mL (≈ 1.82 µM), 3.1 µg/mL (≈ 3.53 µM) and below 0.2 µg/mL.
`CCC1OC(=O)CC(O)C(C)C(OC2OC(C)C(OC3CC(C)(OC(C)=O)C(OC(=O)Cc4cccnc4)C(C)O3)C(N(C)C)C2O)C(CC=O)CC(C)C(=O)C=CC(C)=CC1C` (stereo not drawn): the MIC is 0.4 µg/mL (≈ 0.451 µM) in [1] (setting [10]), 1.6 µg/mL (≈ 1.8 µM) in [2], 3.1 µg/mL (≈ 3.49 µM) in data set [3] (setting [11]) and below 0.2 µg/mL in [4] (setting [12]).
As to `CCC1OC(=O)CC(O)C(C)C(OC2OC(C)C(OC3CC(C)(O)C(OS(=O)(=O)c4ccc(C)cc4)C(C)O3)C(N(C)C)C2O)C(CC=O)CC(C)C(=O)/C=C/C(C)=C/C1C` (stereo not drawn), the MIC in data set [1] (setting [10]) was below 0.2 µg/mL; in [2], 6.3 µg/mL (≈ 7.16 µM); in [3] (setting [11]), 3.1 µg/mL (≈ 3.52 µM); in data set [4] (setting [12]), 0.4 µg/mL (≈ 0.454 µM).
